Legend:
Assay type in all cases: in vivo
Bedbug eggs [1] = assay: Treating bedbug eggs on a substrate with test composition at pH 9 to 10 (Example 1); settings: 1% solution, pH of 9 to 10, 100° F., 5 minutes exposure
Description: Bedbug eggs on a substrate were exposed to a 100° F. test composition for 5 minutes and then examined. […] Water by itself killed about 20% of the bedbug eggs. And, complete kill was accomplished by a commercial bedbug killer sold under the tradename Transport.

Bedbug eggs [2] = assay: Treating bedbug eggs with anionic compounds near neutral pH (Example 2), kill of eggs; settings: pH 7-8, 100° F., 5 min
Description: (§1) Aqueous test compositions of each of several anionic compounds prepared and adjusted to near neutral pH of about 7-8. Bedbug eggs were then contacted with a 100° F. test composition for 5 min.

Bedbug Eggs and Nymphs = assay: Treating bedbug eggs with anionic compounds near neutral pH (Example 2), kill of eggs and nymphs; settings: pH 7-8, 100° F., 5 min
Description: as §1

| Compound | kill of bedbug eggs (Bedbug eggs [1]) | % Kill of Bedbug Eggs (Bedbug eggs [2]; 0.1% aqueous test composition) | % Kill of Bedbug Eggs (Bedbug eggs [2]; 1% aqueous test composition) | % Kill of Bedbug Eggs and Nymphs (Bedbug Eggs and Nymphs; 0.1% aqueous test composition) | % Kill of Bedbug Eggs and Nymphs (Bedbug Eggs and Nymphs; 1% aqueous test composition) |
| --- | --- | --- | --- | --- | --- |
| CCCCCCCCCCCCOS(=O)(=O)[O-].[Na+] [sodium lauryl sulfate] | did not kill | 70% | 75% | 95% | 100% |
| CCCCCCCCS(=O)(=O)[O-].[Na+] [sodium octyl sulfonate] | – | – | 90% | – | 95% |
| sodium dodecylbenzene sulfonate | – | – | 30% | – | 30% |
| sodium lauryl ether sulfate | – | – | 35% | – | 35% |

Source: patent US10143199B2, “Method of killing bedbug eggs” (Ecolab USA Inc., priority 2012, dated 2018)
